Data from patent publication US12281102B2, “Inhibitors of APOL1 and methods of using same” (Vertex Pharmaceuticals Incorporated, priority 2020, dated 2025).

molecular target: T1, G1 APOL1 (Homo sapiens, UniProt O14791, I384M/S342G); assay: Acute APOL1 Thallium Assay with inducible stable clones of HEK 293 cells; format: cell-based; conditions: HEK 293 T-Rex inducible stable clone expressing G1 APOL1; read-out: Thallium Assay (IC50)
T1 construct: expressed in transfected cells
T1 sequence (O14791 28-398 S342G/I384M): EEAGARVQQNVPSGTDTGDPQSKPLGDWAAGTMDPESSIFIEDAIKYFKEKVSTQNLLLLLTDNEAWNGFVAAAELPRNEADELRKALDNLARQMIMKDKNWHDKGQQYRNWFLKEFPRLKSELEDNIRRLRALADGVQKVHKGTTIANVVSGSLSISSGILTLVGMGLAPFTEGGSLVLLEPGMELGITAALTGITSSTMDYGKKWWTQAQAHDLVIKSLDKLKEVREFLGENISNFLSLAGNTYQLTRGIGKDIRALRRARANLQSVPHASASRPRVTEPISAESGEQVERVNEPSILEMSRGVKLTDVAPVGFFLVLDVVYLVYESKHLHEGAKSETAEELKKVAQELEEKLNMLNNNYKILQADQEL
Summary of the method: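 APOL1 pore function was measured as thallium influx, detected by a Tl+-sensitive fluorescent dye loaded as AM ester, on a FLIPR Tetra after Tl+ addition. Cells were HEK T-Rex G1 APOL1 clone DC3.25, 26,000 per well, induced with tetracycline at plating in Opti-MEM assay medium.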

Compound	IC50 [µM]
O=C(CCN1CCCCC1)NC[C@H]1C[C@@H](c2c(-c3ccc(F)cc3)[nH]c3c(F)cc(F)cc32)C1 [Compound 293]	> 1
Cc1cc(-c2[nH]c3c(F)cc(F)cc3c2C2CC(N)C2)ccc1F (mixture of isomers) [Compound 11, 3-[5,7-difluoro-2-(4-fluoro-3-methyl-phenyl)-1H-indol-3-yl]cyclobutanamine]	0.25 to 1
CC(F)(F)C(=O)N[C@H]1C[C@H](c2c(-c3ccc(F)cc3)[nH]c3c(F)cc(F)cc32)C1 [Compound 130]	0.25 to 1
O=C(NC[C@H]1C[C@H](c2c(-c3ccc(F)cc3)[nH]c3c(F)cc(F)cc32)C1)C1COC1 [Compound 202]	< 0.25
CC(C)(O)CC(=O)NC1CC(Cc2c(-c3ccc(F)cc3)[nH]c3c(F)cc(F)cc23)C1 (stereo not drawn) [Compound 160, N-[3-[[5,7-difluoro-2-(4-fluorophenyl)-1H-indol-3-yl]methyl]cyclobutyl]-3-hydroxy-3-methylbutanamide]	0.25 to 1
CC(F)(F)C(=O)N[C@H]1C[C@@H](c2c(-c3ccc(F)cc3)[nH]c3c(F)cc(F)cc32)C1 [Compound 68]	0.25 to 1
O=C1CCCN1CCCNS(=O)(=O)NC[C@H]1C[C@H](c2c(-c3ccc(F)cc3)[nH]c3c(F)cc(F)cc32)C1 [Compound 335]	> 1
NS(=O)(=O)CCCC(=O)N[C@H]1C[C@@H](c2c(-c3ccc(F)cc3)[nH]c3c(F)cc(F)cc32)C1 [Compound 58]	0.25 to 1
O=C(NC[C@H]1C[C@H](c2c(-c3ccc(F)cc3)[nH]c3c(F)cc(F)cc32)C1)c1cn[nH]c1 [Compound 298]	> 1
Cc1nc[nH]c1C(=O)NC1CC(Cc2c(-c3ccc(F)cc3)[nH]c3c(F)cc(F)cc23)C1 (stereo not drawn) [Compound 162]	0.25 to 1
O=C(CCN1CCCC1)NC[C@H]1C[C@@H](c2c(-c3ccc(F)cc3)[nH]c3c(F)cc(F)cc32)C1 [Compound 296]	> 1
O=C(CO)N[C@H]1C[C@@H](c2c(-c3ccc(F)cc3)[nH]c3c(F)cc(F)cc32)C1 [Compound 29, N-((1s,3s)-3-(5,7-difluoro-2-(4-fluorophenyl)-1H-indol-3-yl)cyclobutyl)-2-hydroxyacetamide]	0.25 to 1
O=C(NC[C@H]1C[C@H](c2c(-c3ccc(F)cc3)[nH]c3c(F)cc(F)cc32)C1)[C@@H]1C[C@H](O)CN1 [Compound 254]	> 1
O=C(CCO)NC[C@H]1C[C@@H](c2c(-c3ccc(F)cc3)[nH]c3c(F)cc(F)cc32)C1 [Compound 206]	0.25 to 1
NC1(C(=O)NC[C@H]2C[C@H](c3c(-c4ccc(F)cc4)[nH]c4c(F)cc(F)cc43)C2)CCC1 [Compound 244]	> 1
O=C(N[C@H]1C[C@H](c2c(-c3ccc(F)cc3)[nH]c3c(F)cc(F)cc32)C1)C1COC1 [Compound 131]	0.25 to 1
O=C(NC[C@H]1C[C@H](c2c(-c3ccc(F)cc3)[nH]c3c(F)cc(F)cc32)C1)[C@H]1NCC[C@@H]1O [Compound 222]	0.25 to 1
O=C(NC[C@H]1C[C@H](c2c(-c3ccc(F)cc3)[nH]c3c(F)cc(F)cc32)C1)[C@@H]1COCCN1 [Compound 276]	> 1
CC(NS(C)(=O)=O)C(=O)N[C@H]1C[C@@H](c2c(-c3ccc(F)cc3)[nH]c3c(F)cc(F)cc32)C1 (mixture of isomers) [Compound 55]	> 1
CC(C(=O)N[C@H]1C[C@@H](c2c(-c3ccc(F)cc3)[nH]c3c(F)cc(F)cc32)C1)n1ccnc1 (mixture of isomers) [Compound 40]	> 1
N[C@H]1C[C@H](Cc2c(-c3ccc(F)cc3)[nH]c3c(F)cc(F)cc23)C1 [Compound 157, trans-3-[[5,7-difluoro-2-(4-fluorophenyl)-1H-indol-3-yl]methyl]cyclobutanamine]	< 0.25
CS(=O)(=O)CCC(=O)N[C@H]1C[C@H](c2c(-c3ccc(F)cc3)[nH]c3c(F)cc(F)cc32)C1 [Compound 119]	> 1
O=C(NC[C@H]1C[C@H](c2c(-c3ccc(F)cc3)[nH]c3c(F)cc(F)cc32)C1)[C@H]1C[C@@H](O)CN1 [Compound 275]	> 1
O=C1NCC[C@@H]1NC1CC(c2c(-c3ccc(F)cc3)[nH]c3c(F)cc(F)cc23)C1 (stereo partly drawn) [Compound 20, (3S)-3-[[3-[5,7-difluoro-2-(4-fluorophenyl)-1H-indol-3-yl]cyclobutyl]amino]pyrrolidin-2-one]	< 0.25
CC(CC(=O)N[C@H]1C[C@@H](c2c(-c3ccc(F)cc3)[nH]c3c(F)cc(F)cc32)C1)N1CCOCC1 (mixture of isomers) [Compound 36]	> 1
O=S(=O)(N[C@H]1C[C@@H](c2c(-c3ccc(F)cc3)[nH]c3c(F)cc(F)cc32)C1)c1c[nH]cn1 [Compound 80]	> 1
Fc1ccc(-c2[nH]c3c(F)cc(F)cc3c2C2CC(CNC3CCOC3)C2)cc1 (stereo not drawn) [Compound 396]	> 1

Compound	IC50 [µM]
O=C1CC(C(=O)N[C@H]2C[C@@H](c3c(-c4ccc(F)cc4)[nH]c4c(F)cc(F)cc43)C2)C(=O)N1 (stereo partly drawn) [Compound 65]	> 1
O=C1CCC(C(=O)N[C@H]2C[C@H](c3c(-c4ccc(F)cc4)[nH]c4c(F)cc(F)cc43)C2)CN1 (stereo partly drawn) [Compound 90]	> 1
C[C@@H](O)[C@@H](CO)NCC1CC(c2c(-c3ccc(F)cc3)[nH]c3c(F)cc(F)cc23)C1 (stereo partly drawn) [Compound 408]	> 1
CC(C)(C)OC(=O)NCC(=O)N[C@H]1C[C@@H](c2c(-c3ccc(F)cc3)[nH]c3c(F)cc(F)cc32)C1 [Compound 78]	> 1
CS(=O)(=O)CCCC(=O)NC[C@H]1C[C@@H](c2c(-c3ccc(F)cc3)[nH]c3c(F)cc(F)cc32)C1 [Compound 308]	> 1
NS(=O)(=O)NC[C@H]1C[C@H](c2c(-c3ccc(F)cc3)[nH]c3c(F)cc(F)cc32)C1 [Compound 372]	< 0.25
O=S(=O)(NC[C@H]1C[C@H](c2c(-c3ccc(F)cc3)[nH]c3c(F)cc(F)cc32)C1)NC1(CO)CCC1 [Compound 355]	0.25 to 1
CNCC(=O)N1CC(Cc2c(-c3ccc(F)cc3)[nH]c3c(F)cc(F)cc23)C1 [Compound 440]	0.25 to 1
Cn1cnc(CC(=O)N[C@H]2C[C@H](c3c(-c4ccc(F)cc4)[nH]c4c(F)cc(F)cc43)C2)c1 [Compound 143]	0.25 to 1
NC[C@]1(O)C[C@@H](c2c(-c3ccc(F)cc3)[nH]c3c(F)cc(F)cc32)C1 [Compound 430, (1s,3s)-1-(aminomethyl)-3-(5,7-difluoro-2-(4-fluorophenyl)-1H-indol-3-yl)cyclobutan-1-ol]	0.25 to 1
O=S(=O)(NC[C@H]1C[C@H](c2c(-c3ccc(F)cc3)[nH]c3c(F)cc(F)cc32)C1)c1n[nH]c2ncccc12 [Compound 419]	> 1
O=C(N[C@H]1C[C@@H](c2c(-c3ccc(F)cc3)[nH]c3c(F)cc(F)cc32)C1)C1COC1 [Compound 71]	0.25 to 1
O=C(CC1CS(=O)(=O)C1)N[C@H]1C[C@H](c2c(-c3ccc(F)cc3)[nH]c3c(F)cc(F)cc32)C1 [Compound 101]	> 1
CN(C)C(=O)CCC(=O)N[C@H]1C[C@H](c2c(-c3ccc(F)cc3)[nH]c3c(F)cc(F)cc32)C1 [Compound 123]	0.25 to 1
O=C1NCC[C@H]1NS(=O)(=O)NC[C@H]1C[C@H](c2c(-c3ccc(F)cc3)[nH]c3c(F)cc(F)cc32)C1 [Compound 332, (3R)-3-[[3-[5,7-difluoro-2-(4-fluorophenyl)-1H-indol-3-yl]cyclobutyl]methylsulfamoylamino]pyrrolidin-2-one]	> 1
O=C(NC[C@H]1C[C@@H](c2c(-c3ccc(F)cc3)[nH]c3c(F)cc(F)cc32)C1)c1cnn[nH]1 [Compound 309]	> 1
C[C@@H](CO)NCC1CC(c2c(-c3ccc(F)cc3)[nH]c3c(F)cc(F)cc23)C1 (stereo partly drawn) [Compound 389]	> 1
CC1(NCC2CC(c3c(-c4ccc(F)cc4)[nH]c4c(F)cc(F)cc34)C2)COC1 (stereo not drawn) [Compound 404]	> 1
CC(=O)N[C@H](C)C(=O)NC[C@H]1C[C@H](c2c(-c3ccc(F)cc3)[nH]c3c(F)cc(F)cc32)C1 [Compound 204]	< 0.25
CNC(=O)c1noc(CNS(=O)(=O)NC[C@H]2C[C@H](c3c(-c4ccc(F)cc4)[nH]c4c(F)cc(F)cc43)C2)n1 [Compound 337]	0.25 to 1
CN(C)CC(=O)N[C@H]1C[C@H](c2c(-c3ccc(F)cc3)[nH]c3c(F)cc(F)cc32)C1 [Compound 91]	> 1
CC(CC(=O)N[C@H]1C[C@H](c2c(-c3ccc(F)cc3)[nH]c3c(F)cc(F)cc32)C1)N1CCOCC1 (mixture of isomers) [Compound 102]	> 1
O=C1CC(CC(=O)N[C@H]2C[C@H](c3c(-c4ccc(F)cc4)[nH]c4c(F)cc(F)cc43)C2)CC(=O)N1 [Compound 132]	> 1
O=S(=O)(N[C@H]1C[C@H](c2c(-c3ccc(F)cc3)[nH]c3c(F)cc(F)cc32)C1)C1CCOCC1 [Compound 156]	> 1
O=S(=O)(NC[C@H]1C[C@H](c2c(-c3ccc(F)cc3)[nH]c3c(F)cc(F)cc32)C1)c1cn[nH]c1 [Compound 416]	> 1
O=C1NCCN1C[C@H]1C[C@H](c2c(-c3ccc(F)cc3)[nH]c3c(F)cc(F)cc32)C1 [Compound 373, 1-(((1r,3r)-3-(5,7-difluoro-2-(4-fluorophenyl)-1H-indol-3-yl)cyclobutyl)methyl)imidazolidin-2-one]	< 0.25

same assay, conditions: Thallium Assay (IC50), HEK 293 T-Rex inducible stable clone expressing G1 APOL1

Compound	IC50 [µM]
N[C@H]1C[C@H](c2c(-c3ccc(F)cc3)[nH]c3c(F)cc(F)cc32)C1 [Compound 89, (1r,3r)-3-[5,7-difluoro-2-(4-fluorophenyl)-1H-indol-3-yl]cyclobutanamine]	< 0.25
